In patent US8497367B2, “Sucralose purification process” (Tate & Lyle Technology Limited, priority 2008, dated 2013):

Assay: Distribution coefficient K of sucralose between ethyl acetate (light phase) and aqueous DMAHCl/NaCl solution (heavy phase)
Assay type: physicochemical
Conditions: about 37 g ethyl acetate
Experimental: The solutions were all clear and colorless at room temperature.
Each sample was shaken with about 37 g of ethyl acetate (EA). The mixture was allowed to settle, resulting in the formation of a heavy phase (aqueous) and a light phase (EA based). The weights of these respective phases were recorded and each phase was analysed for its sucralose content. The dry solids content of each phase was also measured by evaporation to dryness (moisture balance).
From the data presented, it is possible to calculate the distribution coefficient K for each experiment, where K is defined as: K=(Wt % Sucralose in light phase)/(Wt % sucralose in heavy phase)

Calculated K / Actual K = (Wt % Sucralose in light phase)/(Wt % sucralose in heavy phase) (Exp #3, feed wt % on water: DMAHCL 0.36%, NaCl 9.87%, sucralose 27.58%): 1.38 | Calculated K / Actual K = (Wt % Sucralose in light phase)/(Wt % sucralose in heavy phase) (Exp #4, feed wt % on water: DMAHCL 0.41%, NaCl 2.10%, sucralose 27.06%): 0.93 | Calculated K / Actual K = (Wt % Sucralose in light phase)/(Wt % sucralose in heavy phase) (Exp #5, feed wt % on water: DMAHCL 5.07%, NaCl 9.75%, sucralose 27.31%): 1.09 | Calculated K / Actual K = (Wt % Sucralose in light phase)/(Wt % sucralose in heavy phase) (Exp #8, feed wt % on water: DMAHCL 4.99%, NaCl 2.04%, sucralose 27.01%): 0.83 | Calculated K / Actual K = (Wt % Sucralose in light phase)/(Wt % sucralose in heavy phase) (Exp #9, feed wt % on water: DMAHCL 2.55%, NaCl 5.15%, sucralose 13.98%): 0.76
SMILES: OC[C@H]1O[C@H](O[C@]2(CCl)O[C@H](CCl)[C@@H](O)[C@@H]2O)[C@H](O)[C@@H](O)[C@H]1Cl [Sucralose, 4,1′,6′-trichloro-4,1′,6′-trideoxygalactosucrose]
